Marks after values point to notes of the source that are not given here.
Tested on: golden apple snail (Pomacea canaliculata (Lamarck))
Test: Hurting rate and death rate of golden apple snails on SDS-added paper mat round boards on wet paddy soil in Petri dishes
Assay type: in vivo
Conditions: for Death Rate (%) / Hurting Rate (%): average after three days, paper mat
Protocol: The glutinous solutions with different SDS densities (100, 500, 1000, 2000, 5000, 7500, and 10000 ppm) are prepared in advance, and the paper mat made by YUEN FOONG YU PAPER MFG Co., Ltd is also cut into many round boards having a diameter of 9 cm.
The test is done by the following steps. At first, each of the round boards is dripped with 2 ml of one of the glutinous solutions respectively. The round boards are dried in an oven at a temperature of 30° C. Then, the soil taken from the paddy field is added with water to simulate the natural environment. Each of the dried SDS-added round boards is bedded on 50 g of the wet soil in a Petri dish respectively. Finally, each of the dishes is added with 10 ml water and put 10 golden apple snails thereon.
Two other groups are prepared for comparison. […] All the three groups are observed in a greenhouse.

[1] = Conc. of SDS solution 100 ppm, snail size 3.28 ± 0.43 g/per snail
[2] = Conc. of SDS solution 500 ppm, snail size 3.28 ± 0.43 g/per snail
[3] = Conc. of SDS solution 1000 ppm, snail size 3.28 ± 0.43 g/per snail
[4] = Conc. of SDS solution 2500 ppm, snail size 0.82 ± 0.26 g/per snail
[5] = Conc. of SDS solution 5000 ppm, snail size 0.82 ± 0.26 g/per snail
[6] = Conc. of SDS solution 7500 ppm, snail size 0.82 ± 0.26 g/per snail
[7] = Conc. of SDS solution 10000 ppm, snail size 0.82 ± 0.26 g/per snail

**Q.** What does the source list for `CCCCCCCCCCCCOS(=O)(=O)[O-].[Na+]` [SDS, sodium dodecyl sulfate]?
**A.** Death Rate (%) [1]: 0.00%; Hurting Rate (%) [1]: 3.33* %; Death Rate (%) [2]: 3.33%; Hurting Rate (%) [2]: 6.67%; Death Rate (%) [3]: 10.00%; Hurting Rate (%) [3]: 23.33%; Death Rate (%) (Conc. of SDS solution 2000 ppm, snail size 3.28 ± 0.43 g/per snail): 10.00%; Death Rate (%) [4]: 100.00%; Hurting Rate (%) [4]: 100.00* %; Death Rate (%) [5]: 100.00%; Hurting Rate (%) [5]: 100.00%; Death Rate (%) [6]: 100.00%; Hurting Rate (%) [6]: 100.00%; Death Rate (%) [7]: 100.00%; Hurting Rate (%) [7]: 100.00%; hurting rate (smaller snails, SDS concentrations above 2500 ppm (summary of Table 2)): ~100.00%

Reference: patent US20020172704A1, “Planting method and biodegradable material for preventing pests” (priority 2001, published 2002)
